Five molecules from publication PMC9942557, “Bolaamphiphile Analogues of 12-bis-THA Cl2 Are Potent Antimicrobial Therapeutics with Distinct Mechanisms of Action against Bacterial, Mycobacterial, and Fungal Pathogens” (mSphere, 2022) can be followed below.

Data set [1] deals with Acinetobacter baumannii AYE. The data set can be described thus: Broth microdilution MIC. It counts as cell-based.
Data set [2] relates to Acinetobacter baumannii ATCC 17978. Briefly: Broth microdilution MIC. It counts as cell-based. Background: In broth dilution the organism is exposed to a series of concentrations in liquid medium.
Data set [3] relates to Pseudomonas aeruginosa PAO1. Briefly: Broth microdilution MIC. The data set is classed as cell-based.
Data set [4] concerns Escherichia coli NCTC 12923. Briefly: Broth microdilution MIC. The data set is classed as cell-based.
Data set [5] concerns VR Enterococcus faecalis NCTC 12201. Briefly: Broth microdilution MIC. The data set is classed as cell-based.
Another data set relates to C. albicans 3179. Briefly: Broth microdilution MIC. The data set is classed as cell-based, Candida albicans. The conditions noted are these: C. albicans 3179.
The test system of the next data set is C. albicans 3281. The data set can be described thus: Broth microdilution MIC. The conditions noted are these: C. albicans 3281. The data set is classed as cell-based, Candida albicans.
The next data set deals with C. krusei 3876. Briefly: Broth microdilution MIC. The data set is classed as cell-based.
The test system of data set [6] is pBR322 plasmid, wheat germ topoisomerase I. Briefly: DNA unwinding assay. It counts as biochemical. The conditions noted are these: for DNA intercalation: relaxed pBR322 plasmid plus topoisomerase I (Fig. 2A); for relaxation of supercoiled plasmid through the action of topoisomerase I: supercoiled pBR322 plasmid, bolalipid present (Fig. 2B). The procedure: A DNA unwinding assay kit (Inspiralis Limited, Norwich, UK) consists of wheat germ topoisomerase I assay buffer (50 mM Tris HCl [pH 7.9], 1 mM EDTA, 1 mM dithiothreitol [DTT], 20% [vol/vol] glycerol, 50 mM NaCl) dilution buffer (50 mM Tris HCl [pH 7.9], 1 mM EDTA, 1 mM DTT, 50% [vol/vol] glycerol, 500 mM NaCl), wheat germ topoisomerase I (5 U/μL), supercoiled plasmid pBR322 (1 μg/μL), and relaxed plasmid pBR322 (1 μg/μL). For the experiments, 2× DNA loading buffer containing 40% (wt/vol) sucrose, 100 mM Tris-HCl (pH 8), 1 mM EDTA, and 0.5 mg/mL bromophenol blue was prepared. The enzyme was diluted 1/5 with dilution buffer before being used in the assay. For the assay, 3 mM stock solutions in methanol of the compounds to be tested were prepared. An appropriate number of 1.5-mL Eppendorf tubes were filled with 25 μL of a mix consisting of assay buffer (15 μL of buffer per sample), supercoiled or relaxed pBR322 (0.5 μg/assay), and ultrapure water. In the first two tubes, 1 μL of methanol was added to test the effect of the solvent on both the plasmid and the enzyme. Subsequently, 1 μL of the test compounds was added to the remaining tubes, and the tubes briefly vortexed and incubated at room temperature for 5 min. After that, 2 μL of dilution buffer was added in the first tube, whereas 2 μL of enzyme diluted solution was added to the remaining tubes. The tubes were gently vortexed and incubated for 30 min at 37°C in a water bath. After this time, the reaction was stopped by adding 20 μL of water and 50 μL of water-saturated butanol to each tube. The tubes were vortexed and centrifuged for 1 min at 14,800 rpm. The lower aqueous layer of each tube was removed and transferred to a new tube containing 30 μL of chloroform-isoamyl alcohol (24/1) and 50 μL of loading buffer. The tubes were briefly vortexed and centrifuged for 1 min. Twenty microliters of the upper layer of each tube was loaded onto a 1% (wt/vol) agarose gel, and the gel was run at 80 V for approximately 4 h in Tris-acetate-EDTA buffer (40 mM Tris acetate and 1 mM EDTA). Subsequently, the gel was stained with ethidium bromide (1 μg/mL) for 15 min, briefly destained (5 to 10 min) in water, and visualized with a Multi-Doc Imaging M-26X UVP transilluminator.

The nature of data set [7]: Patch-clamp conductance in model membranes. The note with it: bilayers composed of DPhPG. As to the method:
Giant unilamellar vesicles (GUVs) composed of DiPhytanoly PhosphatidylGlycerol (DPhPG) were prepared in the presence of 1 M sorbitol by the electroformation method in an indium-tin oxide (ITO)-coated glass chamber connected to the Nanion Vesicle Prep Pro setup (Nanion Technologies GmbH, Munich, Germany) using a 3-V peak-to-peak AC voltage at a frequency of 5 Hz for 140 min at 37°C ([30][–][32]). Bilayers were formed by adding the GUV solution to a buffer containing 250 mM KCl, 50 mM MgCl2, and 10 mM HEPES (pH 7.00) onto an aperture in a borosilicate chip (Port-a-Patch; Nanion Technologies) and applying 7,000 to 9,000 Pa negative pressure, resulting in a solvent-free membrane with a resistance in the GΩ range. […] After formation, a small amount of bolalipid stock solution (in water) was added to 50 μL of buffer solution in order to obtain its active concentration. All the experiments were carried out with a positive holding potential of 50 mV. […] For all the experiments, a minimum of 6 concordant repeats were done. Current traces were recorded at a sampling rate of 50 kHz using an EPC-10 amplifier from HEKA Elektronik (Lambrecht, Germany). The system was computer controlled by PatchControl software (Nanion) and GePulse (Michael Pusch, Genoa, Italy [http://users.ge.ibf.cnr.it/pusch/software-mik.htm]). […]

A short description of another data set: Dynamic light scattering. The data set is classed as physicochemical. The conditions noted are these: 0.36 mM in water. The procedure:
Stock solutions of bolalipids were prepared by dispersing the powder in ultrapure water, then stirring vigorously by vortexing, and sonicating in a 40°C bath sonicator for 20 min. The concentration of each stock solution corresponds to the highest solubility achieved in water for each bolalipid, using the method described above. DLS experiments were performed on a Malvern Zetasizer Nano (Malvern Instruments, Worcestershire, UK) in back-scattering mode at 20°C. There were three independent measurements of each sample and 12 runs for each measurement, with 10 s taken for each run. The attenuator index and measurement position were automatically adjusted. Fifty microliters of each sample was transferred into polystyrene semi-microcuvettes for determination of UV and visible wavelengths (Sarstedt).

In data set [8] the test system is Gram-positive bacteria (avg). The data set can be described thus: Selectivity index (toxicity/potency). The data set is classed as cell-based. The note with it: ratio of average toxicity (HEK293 and HeLa) to average potency.
The subject of data set [9] is M. tuberculosis Bleupan. Briefly: Selectivity index (toxicity/potency). It counts as cell-based, Mycobacterium tuberculosis. The note with it: ratio of average toxicity (HEK293 and HeLa) to potency. The source says:
TABLE 3 Selectivity indices of bolaamphiphiles | column: Selectivity of^a: / 12-bis-THA Cl2; Selectivity of^a: / Dequalinium; Selectivity of^a: / Penta-bola; Selectivity of^a: / Octa-bola; Selectivity of^a: / Octa-C8; Selectivity of^a: / Octa-C6

In data set [10] the test system is M. tuberculosis Bleupan. The data set is classed as in vivo, Galleria mellonella.
Where [11] appears, read: VR Enterococcus faecalis NCTC 12201.
The mark [12] stands for this setting: Acinetobacter baumannii AYE, read-out: MIC.
The mark [13] stands for this setting: NCTC12201, VR Enterococcus faecalis NCTC 12201, read-out: MIC.
The mark [14] stands for this setting: Candida albicans, read-out: MIC.
Where [15] appears, read: Pichia kudriavzevii, read-out: MIC.

Like-named read-outs stand apart in the source and are kept apart here.

What is called MIC is the smallest concentration in the dilution series that meets the test's criterion for growth inhibition.

Consider `Nc1c2c([n+](CCCCCCCCCCCC[n+]3c4c(c(N)c5ccccc53)CCCC4)c3ccccc13)CCCC2` [12-bis-THA Cl2, 12,12′-(Dodecane-1,12-diyl)-bis-(9-amino-1,2,3,4-tetrahydroacridinium) chloride], for which the minimum inhibitory concentration (MIC) was determined as 16 µg/mL in data set [1] (Acinetobacter baumannii AYE); 16 µg/mL in [2]; 32 µg/mL in data set [3]; 4 µg/mL in [4]; 1 µg/mL in [5] (setting [11]); 0.25 µg/mL with C. albicans 3179. In addition, the minimal inhibitory concentration (MIC) in the data set on C. albicans 3281 stood at 0.25 µg/mL; in the data set on C. krusei 3876, 0.5 µg/mL. The DNA intercalation entry in data set [6] is listed as “intercalators”. Also, the “relaxation of supercoiled plasmid through the action of topoisomerase I” value (“relaxation” below) in data set [6] was “not observed”. For the same molecule, in data set [7], the “concentration required to induce any conductance” value is 90 µM. For the same molecule, the “nanoparticle formation (DLS)” value in “Dynamic light scattering” is reported as “to some extent”.

For the molecule `Cc1cc(N)c2ccccc2[n+]1CCCCCCCCCC[n+]1c(C)cc(N)c2ccccc21` [Dequalinium, dequalinium chloride, reference compound], the MIC in data set [1] (setting [12]) is 32 µg/mL; in [2] (ATCC17978, read-out: MIC), 32 µg/mL; in data set [3] (read-out: MIC) it was more than 32 µg/mL; in data set [4] (NCTC12923, read-out: MIC), 32 µg/mL; in [5] (setting [13]), 16 µg/mL; in the data set on C. albicans 3179 (setting [14]), 0.5 µg/mL. In addition, the MIC amounted to 0.5 µg/mL with C. albicans 3281 (setting [14]) and 1 µg/mL with C. krusei 3876 (setting [15]). The Selectivity index in data set [8] is reported as 2.65; with M. tuberculosis Bleupan [9], 6.35. Moreover, the DNA intercalation result in data set [6] is listed as “intercalators”. Besides, in data set [6], the “relaxation” value is reported as “not observed”. Further, in data set [7], the “concentration required to induce any conductance” value amounted to 90 µM. Also, the results for the survival entry with M. tuberculosis Bleupan [10] (0.1 mg/kg) and in the data set on M. tuberculosis Bleupan [10] (higher or lower doses than 0.1 mg/kg) were “lower survival” and “indifferent”, respectively. Also, the “nanoparticle formation (DLS)” value in “Dynamic light scattering” was “readily form nanoparticles”.

`Nc1c2c([n+](CCCCCCCCCCCC[n+]3c4c(c(N)c5ccccc53)CCC4)c3ccccc13)CCC2` [Penta-bola]: the MIC was 32 µg/mL in [1] (Acinetobacter baumannii AYE); 16 µg/mL in data set [2]; 32 µg/mL in [3]; 16 µg/mL in data set [4]; 1 µg/mL in [5] (setting [11]); 0.25 µg/mL against C. albicans 3179. In addition, the results for the MIC against C. albicans 3281 and against C. krusei 3876 were 0.25 µg/mL and 0.5 µg/mL, respectively. Besides, the DNA intercalation entry in data set [6] is “intercalators”. In [6], the “relaxation” value was “not observed”. Moreover, the “nanoparticle formation (DLS)” value in “Dynamic light scattering” is on record as “to some extent”.

For the molecule `Nc1c2c([n+](CCCCCCCCCCCC[n+]3c4c(c(N)c5ccccc53)CCCCCC4)c3ccccc13)CCCCCC2` [Octa-bola], the minimum inhibitory concentration (MIC) was 8 µg/mL in data set [1] (setting [12]); 8 µg/mL in data set [2] (ATCC17978, read-out: MIC); 32 µg/mL in data set [3] (read-out: MIC); 2 µg/mL in data set [4] (NCTC12923, read-out: MIC); 1 µg/mL in data set [5] (setting [13]); 0.5 µg/mL in the data set with C. albicans 3179 (setting [14]). Moreover, the MIC in the data set on C. albicans 3281 (setting [14]) and in the data set on C. krusei 3876 (setting [15]) was 0.5 µg/mL throughout. Besides, the Selectivity index was 17.4 in data set [8] and 17.3 in the data set with M. tuberculosis Bleupan [9]. The DNA intercalation entry in [6] is on record as “intercalation is reduced if not eliminated”. Moreover, the “relaxation” value in data set [6] is reported as “not observed”. Further, in the data set on M. tuberculosis Bleupan [10] (1 mg/kg), the infected larvae rescued result is “about half”. Also, the “nanoparticle formation (DLS)” value in the data set “Dynamic light scattering” is “readily form nanoparticles”.

In the case of `Cc1c(N)c2ccccc2[n+](CCCCCCCCCCCC[n+]2c(C)c(C)c(N)c3ccccc32)c1C` [Quino-bola], the MIC in [1] (Acinetobacter baumannii) was 32 µg/mL; in data set [2] (ATCC17978, read-out: MIC), 16 µg/mL; in data set [3] (read-out: MIC), more than 32 µg/mL; in [4] (NCTC12923, read-out: MIC) it was 8 to 16 µg/mL; in [5] (Enterococcus faecalis, NCTC12201), 2 µg/mL; with C. albicans 3179 (setting [14]) it was 0.25 µg/mL. In addition, the MIC in the data set on C. albicans 3281 (setting [14]) is 0.25 µg/mL; in the data set on C. krusei 3876 (setting [15]), 1 µg/mL. Besides, the Selectivity index in data set [8] is recorded as 8.94. Also, the DNA intercalation result in data set [6] is recorded as “intercalators”. Also, the “relaxation” value in data set [6] is listed as “not observed”.
